target: T1, TYK2-JH2 (Homo sapiens, UniProt P29597); experiment: TYK2-JH2 HTRF binding assay (ligand efficiency); details: calculated from binding-assay IC50 (Equation 1)
T1 construct: TYK JH2 enzyme mix (ChemPartner: CP20210818A-BV); purchased ChemPartner CP20210818A-BV
Method: The following example describes the TYK2-JH2 HTRF binding assay used to determine the ligand efficiency of the TYK2 inhibitors.
To calculate ligand efficiency, Equation 1 is applied: […]
in which IC50 comes from the binding assay used to determine compound potency.
TYK JH2 enzyme mix (ChemPartner: CP20210818A-BV), tracer (ChemPartner: CP-0029472-051) and mAb Anti-6HIS Tb cryptate Gold (Cisbio: Cat No. 61HI2TLA) mix were prepared in assay buffer (10 mM MgCl2, 20 mM HEPES pH 7.5, 0.01% Triton X-100, 1 mM DTT). Compounds diluted in DMSO (Final Concentrations 0.1 to 0.000005 [μM]) and enzyme mix (0.5 nM Final Concentration) were added to 384 well plates, briefly centrifuged and incubated at room temperature for 10 minutes. After incubation, tracer mix (Tracer-35 nM final concentration); (MAb Anti-6HIS Tb cryptate Gold-0.5× final)) was added, briefly centrifuged then incubate at room temperature 60 minutes. After incubation, plates were read by Envision TR-FRET (Ex340/Em495/520) protocol (PerkinElmer-Envision 2104 multilabel plate reader).

T1 sequence (P29597 589-875 limits assumed): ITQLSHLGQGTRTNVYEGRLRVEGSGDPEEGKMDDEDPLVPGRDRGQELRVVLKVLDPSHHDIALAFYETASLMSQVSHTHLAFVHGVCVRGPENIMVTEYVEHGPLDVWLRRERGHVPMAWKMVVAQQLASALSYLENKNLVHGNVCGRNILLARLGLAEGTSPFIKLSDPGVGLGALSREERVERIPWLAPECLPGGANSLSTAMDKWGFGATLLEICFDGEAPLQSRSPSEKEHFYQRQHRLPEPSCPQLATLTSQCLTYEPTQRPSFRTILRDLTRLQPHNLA

SMILES | Ligand Efficiency
CC(c1ccc(Nc2cc(Nc3ncccc3S(C)(=O)=O)ncn2)nc1)N1CC2(CC(C(F)F)C2)C1 (stereo not shown) [Compound 34, N^4-(5-(1-(6-(difluoromethyl)-2-azaspiro[3.3]heptan-2-yl)ethyl)pyridin-2-yl)-N^6-(3-(methylsulfonyl)pyridin-2-yl)pyrimidine-4,6-diamine] | †† (††: 0.37-0.39)
CC(NC1CC(F)(F)C1)c1ccc(Nc2cc(Nc3ncccc3S(C)(=O)=O)ncn2)nc1 (stereo not shown) [Compound 35, N^4-(5-(1-(3,3-difluorocyclobutylamino)ethyl)pyridin-2-yl)-N^6-(3-(methylsulfonyl)pyridin-2-yl)pyrimidine-4,6-diamine] | ††† (†††: >0.39)
CC1(CNc2ccc(Nc3cc(Nc4ncccc4S(C)(=O)=O)ncn3)nc2)COC1 [Compound 36, N^4-(5-(((3-methyloxetan-3-yl)methyl)amino)pyridin-2-yl)-N^6-(3-(methylsulfonyl)pyridin-2-yl)pyrimidine-4,6-diamine] | ††† (†††: >0.39)
CS(=O)(=O)c1cccnc1Nc1cc(Nc2ccc(NC3CC(F)(F)C3)cn2)ncn1 [Compound 37, N^4-(5-(3,3-difluorocyclobutylamino)pyridin-2-yl)-N^6-(3-(methylsulfonyl)pyridin-2-yl)pyrimidine-4,6-diamine] | ††† (†††: >0.39)
CS(=O)(=O)c1cccnc1Nc1cc(Nc2ccc(C(=O)NC3CC(F)(F)C3)cn2)ncn1 [Compound 38, N-(3,3-difluorocyclobutyl)-6-(6-(3-(methylsulfonyl)pyridine-2-ylamino)pyrimidin-4-ylamino)nicotinamide] | ††† (†††: >0.39)
CC(C)(NC1COC1)c1ccc(Nc2cc(Nc3ccccc3S(C)(=O)=O)ncn2)nc1 [Compound 39, N^4-(2-(methylsulfonyl)phenyl)-N^6-(5-(2-(oxetan-3-ylamino)propan-2-yl)pyridin-2-yl)pyrimidine-4,6-diamine] | †† (††: 0.37-0.39)
CS(=O)(=O)c1ccccc1Nc1cc(Nc2ccc(C3(NC4COC4)CC3)cn2)ncn1 [Compound 41, N^4-(2-(methylsulfonyl)phenyl)-N^6-(5-(1-(oxetan-3-ylamino)cyclopropyl)pyridin-2-yl)pyrimidine-4,6-diamine] | †† (††: 0.37-0.39)
CS(=O)(=O)c1ccccc1Nc1cc(Nc2ccc(N3CCOCC3)cn2)ncn1 [Compound 42, N^4-(2-(methylsulfonyl)phenyl)-N^6-(5-morpholinopyridin-2-yl) pyrimidine-4,6-diamine] | ††† (†††: >0.39)
CS(=O)(=O)c1ccccc1Nc1cc(Nc2ccc(C(=O)NC3CCOC3)cn2)ncn1 (stereo not shown) [Compound 43, 6-(6-(2-(methylsulfonyl)phenylamino)pyrimidin-4-ylamino)-N-(tetrahydrofuran-3-yl)nicotinamide] | †† (††: 0.37-0.39)
Cc1ccnc(Nc2cc(Nc3ccccc3S(C)(=O)=O)ncn2)c1 [Compound 44, N^4-(4-methylpyridin-2-yl)-N^6-(2-(methylsulfonyl)phenyl) pyrimidine-4,6-diamine] | ††† (†††: >0.39)
Cc1ccnc(Nc2cc(Nc3ccccc3C(N)=O)ncn2)c1 [Compound 45, 2-((6-((4-methylpyridin-2-yl)amino)pyrimidin-4-yl)amino) benzamide] | ††† (†††: >0.39)
Cc1cccc(Nc2cc(Nc3ccccc3C(N)=O)ncn2)n1 [Compound 46] | ††† (†††: >0.39)
Cc1cnnc(Nc2cc(Nc3ccccc3C(N)=O)ncn2)c1 [Compound 47, 2-((6-((5-methylpyridazin-3-yl)amino)pyrimidin-4-yl)amino) benzamide] | ††† (†††: >0.39)
Cc1nccc(Nc2cc(Nc3ccccc3C(N)=O)ncn2)n1 [Compound 48, 2-((6-((2-methylpyrimidin-4-yl)amino)pyrimidin-4-yl)amino) benzamide] | ††† (†††: >0.39)
Cc1cncc(Nc2cc(Nc3ccccc3C(N)=O)ncn2)n1 [Compound 49, 2-(6-(6-methylpyrazin-2-ylamino)pyrimidin-4-ylamino)benzamide] | ††† (†††: >0.39)
Cc1cccc(Nc2cc(Nc3cccnc3C(N)=O)ncn2)n1 [Compound 50, 3-((6-((6-methylpyridin-2-yl)amino)pyrimidin-4-yl)amino) picolinamide] | ††† (†††: >0.39)
Cc1cccc(Nc2cc(Nc3ccncc3C(N)=O)ncn2)n1 [Compound 51, 4-((6-((6-methylpyridin-2-yl)amino)pyrimidin-4-yl)amino) nicotinamide] | ††† (†††: >0.39)

SMILES | Ligand Efficiency
Cc1cccc(Nc2cc(Nc3ncccc3C(N)=O)ncn2)n1 [Compound 52, 2-((6-((6-methylpyridin-2-yl)amino)pyrimidin-4-yl)amino) nicotinamide] | ††† (†††: >0.39)
Cc1cccc(Nc2cc(Nc3ccccc3NS(C)(=O)=O)ncn2)n1 [Compound 53, N-(2-(6-(6-methylpyridin-2-ylamino)pyrimidin-4-ylamino)phenyl) methanesulfonamide] | ††† (†††: >0.39)
C[C@H]1COCCN1c1ccc(Nc2cc(Nc3ccccc3S(C)(=O)=O)ncn2)nc1 [Compound 54, (S)—N^4-(5-(3-methylmorpholino)pyridin-2-yl)-N^6-(2-(methylsulfonyl)phenyl)pyrimidine-4,6-diamine] | † (†: < 0.37)
Cc1cccc(Nc2cc(Nc3ccccc3C(N)=O)nc(N)n2)n1 [Compound 55, 2-((2-amino-6-((6-methylpyridin-2-yl)amino)pyrimidin-4-yl)amino)benzamide] | †† (††: 0.37-0.39)
Cc1cccc(Nc2cc(Nc3ccccc3S(C)(=O)=O)nc(C)n2)n1 [Compound 56, 2-methyl-N^4-(6-methylpyridin-2-yl)-N^6-(2-(methylsulfonyl)phenyl) pyrimidine-4,6-diamine] | † (†: < 0.37)
Cc1cccc(Nc2cc(Nc3ccccc3S(C)(=O)=O)nc(N)n2)n1 [Compound 57, N^4-(6-methylpyridin-2-yl)-N^6-(2-(methylsulfonyl)phenyl)pyrimidine-2,4,6-triamine] | ††† (†††: >0.39)
Cc1ccnc(Nc2cc(Nc3ccccc3C(N)=O)ncn2)n1 [Compound 58, 2-(6-(4-methylpyrimidin-2-ylamino)pyrimidin-4-ylamino)benzamide] | ††† (†††: >0.39)
Cc1cccc(Nc2cc(Nc3cccnc3S(C)(=O)=O)ncn2)n1 [Compound 59, N^4-(6-methylpyridin-2-yl)-N^6-(2-(methylsulfonyl)pyridin-3-yl) pyrimidine-4,6-diamine] | ††† (†††: >0.39)
Cc1cccc(Nc2cc(Nc3ccncc3S(C)(=O)=O)ncn2)n1 [Compound 60, N^4-(6-methylpyridin-2-yl)-N^6-(3-(methylsulfonyl)pyridin-4-yl) pyrimidine-4,6-diamine] | ††† (†††: >0.39)
Cc1cccc(Nc2cc(Nc3cnccc3C(N)=O)ncn2)n1 [Compound 61, 3-((6-((6-methylpyridin-2-yl)amino)pyrimidin-4-yl)amino) isonicotinamide] | ††† (†††: >0.39)
Cc1ccnc(Nc2cc(Nc3ccccc3P(C)(C)=O)ncn2)c1 [Compound 63, N^4-(2-(dimethylphosphoryl)phenyl)-N^6-(4-methylpyridin-2-yl) pyrimidine-4,6-diamine] | ††† (†††: >0.39)
CS(=O)(=O)c1cccnc1Nc1cc(Nc2ncccc2F)ncn1 [Compound 64, N^4-(3-fluoropyridin-2-yl)-N^6-(3-(methylsulfonyl)pyridin-2-yl) pyrimidine-4,6-diamine] | ††† (†††: >0.39)
COc1ccnc(Nc2cc(Nc3cccc(C)n3)ncn2)c1S(C)(=O)=O [Compound 65, N^4-(4-methoxy-3-(methylsulfonyl)pyridin-2-yl)-N^6-(6-methylpyridin-2-yl)pyrimidine-4,6-diamine] | ††† (†††: >0.39)
Cn1ccc(Nc2cc(Nc3ccccc3S(C)(=O)=O)ncn2)n1 [Compound 66, N^4-(1-methyl-1H-pyrazol-3-yl)-N^6-(2-(methylsulfonyl)phenyl) pyrimidine-4,6-diamine] | ††† (†††: >0.39)
Cn1ccc(Nc2cc(Nc3ccccc3C(N)=O)ncn2)n1 [Compound 67, 2-((6-((1-methyl-1H-pyrazol-3-yl)amino)pyrimidin-4-yl)amino)benzamide] | ††† (†††: >0.39)
Cc1cccnc1Nc1cc(Nc2ccccc2C(N)=O)ncn1 [Compound 68, 2-((6-((3-methylpyridin-2-yl)amino)pyrimidin-4-yl)amino) benzamide] | ††† (†††: >0.39)
CS(=O)(=O)c1ccccc1Nc1cc(NC(=O)C2CC2)ncn1 [Compound 69, N^4-(cyclopropylcarbonyl)-N^6-(2-(methylsulfonyl)phenyl)pyrimidine-4,6-diamine] | ††† (†††: >0.39)
